According to ChEMBL document CHEMBL6182900, “Discovery of potent focal adhesion kinase (FAK) inhibitor A8 with enhanced antitumor activity” (Eur J Med Chem, 2025):
Values belong to the compound of their own block, whether it stands above or below them.

How the values were obtained:
SK-OV-3 [1] = test: Antitumor activity against human SK-OV-3 cells xenografted in mouse model assessed as tumor growth inhibition at 25 mg/kg administered twice daily for 5 days and measured after 2 days break relative to control; type: functional; conditions: SK-OV-3, 168 h, time 7 day, read-out: TGI
A549 = test: Antitumor activity against human A549 cells xenografted in mouse model assessed as tumor growth inhibition at 50 mg/kg, po administered for 5 days and measured after 2 days relative to control; conditions: 168 h, read-out: TGI
SK-OV-3 [2] = test: Antitumor activity against human SK-OV-3 cells xenografted in mouse model assessed as tumor growth inhibition at 25 mg/kg co-administered with paclitaxel as twice daily dose for 5 days and measured after 2 days break relative to control; conditions: SK-OV-3, 168 h, read-out: TGI
SK-OV-3 [3] = test: Antitumor activity against human SK-OV-3 cells xenografted in mouse model assessed as tumor growth inhibition at 4 mg/kg, ip administered as weekly dose relative to control; type: functional; conditions: read-out: TGI
Cytochrome P450 3A4 = Cytochrome P450 3A4 (Homo sapiens, UniProt P08684); test: Inhibition of CYP3A4 in human liver microsomes in presence of NADPH by LC-MS/MS analysis; type: ADME, Microsome
Chain of Cytochrome P450 3A4 (P08684 whole entry): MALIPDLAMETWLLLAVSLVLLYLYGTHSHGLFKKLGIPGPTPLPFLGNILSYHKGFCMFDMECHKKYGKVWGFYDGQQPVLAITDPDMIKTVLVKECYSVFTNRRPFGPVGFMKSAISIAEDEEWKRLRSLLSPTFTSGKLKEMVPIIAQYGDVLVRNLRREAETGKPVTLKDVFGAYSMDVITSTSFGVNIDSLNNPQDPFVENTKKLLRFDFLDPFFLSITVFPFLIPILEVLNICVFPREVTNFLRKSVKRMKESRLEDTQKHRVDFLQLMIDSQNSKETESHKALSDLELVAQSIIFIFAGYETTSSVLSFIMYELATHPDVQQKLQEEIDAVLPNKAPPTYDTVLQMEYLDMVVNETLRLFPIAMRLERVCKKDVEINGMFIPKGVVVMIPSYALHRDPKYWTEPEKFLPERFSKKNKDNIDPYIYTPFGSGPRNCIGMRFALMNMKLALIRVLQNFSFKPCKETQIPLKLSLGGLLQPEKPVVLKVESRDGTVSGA

Cytochrome P450 2D6 = Cytochrome P450 2D6 (Homo sapiens, UniProt P10635); test: Inhibition of CYP2D6 in human liver microsomes in presence of NADPH by LC-MS/MS analysis; type: ADME, Microsome
Chain of Cytochrome P450 2D6 (P10635 whole entry): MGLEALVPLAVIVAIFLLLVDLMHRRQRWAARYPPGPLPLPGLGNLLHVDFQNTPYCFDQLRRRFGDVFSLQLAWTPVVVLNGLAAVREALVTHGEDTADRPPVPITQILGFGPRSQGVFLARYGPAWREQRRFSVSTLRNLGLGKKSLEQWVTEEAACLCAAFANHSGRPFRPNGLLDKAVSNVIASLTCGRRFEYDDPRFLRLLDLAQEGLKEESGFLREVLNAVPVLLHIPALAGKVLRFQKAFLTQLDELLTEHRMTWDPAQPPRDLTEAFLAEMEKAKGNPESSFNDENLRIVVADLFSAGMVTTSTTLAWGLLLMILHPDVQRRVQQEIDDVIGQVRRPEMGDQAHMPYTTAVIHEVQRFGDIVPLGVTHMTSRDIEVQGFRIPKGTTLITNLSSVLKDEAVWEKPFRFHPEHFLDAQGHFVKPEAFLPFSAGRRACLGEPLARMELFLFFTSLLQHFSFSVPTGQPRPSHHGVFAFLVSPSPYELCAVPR

Cytochrome P450 2C9 = Cytochrome P450 2C9 (Homo sapiens, UniProt P11712); test: Inhibition of CYP2C9 in human liver microsomes in presence of NADPH by LC-MS/MS analysis; type: ADME, Microsome
Chain of Cytochrome P450 2C9 (P11712 whole entry): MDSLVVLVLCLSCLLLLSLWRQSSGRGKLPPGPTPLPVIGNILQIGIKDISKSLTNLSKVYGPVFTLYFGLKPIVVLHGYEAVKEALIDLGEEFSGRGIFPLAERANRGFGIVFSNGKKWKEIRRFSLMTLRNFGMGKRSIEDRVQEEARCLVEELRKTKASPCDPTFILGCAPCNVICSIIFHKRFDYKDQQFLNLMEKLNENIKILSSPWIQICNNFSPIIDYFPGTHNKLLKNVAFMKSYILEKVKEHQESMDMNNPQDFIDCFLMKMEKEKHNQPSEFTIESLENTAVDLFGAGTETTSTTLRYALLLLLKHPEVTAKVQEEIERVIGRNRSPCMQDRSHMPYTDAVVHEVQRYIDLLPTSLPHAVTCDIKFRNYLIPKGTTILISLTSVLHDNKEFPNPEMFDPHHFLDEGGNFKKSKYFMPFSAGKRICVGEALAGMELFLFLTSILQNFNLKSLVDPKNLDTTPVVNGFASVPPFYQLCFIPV

Cytochrome P450 1A2 = target: T1, Cytochrome P450 1A2 (Homo sapiens, UniProt P05177); test: Inhibition of CYP1A2 in human liver microsomes in presence of NADPH by LC-MS/MS analysis; type: ADME, Microsome
T1 sequence (P05177 whole entry): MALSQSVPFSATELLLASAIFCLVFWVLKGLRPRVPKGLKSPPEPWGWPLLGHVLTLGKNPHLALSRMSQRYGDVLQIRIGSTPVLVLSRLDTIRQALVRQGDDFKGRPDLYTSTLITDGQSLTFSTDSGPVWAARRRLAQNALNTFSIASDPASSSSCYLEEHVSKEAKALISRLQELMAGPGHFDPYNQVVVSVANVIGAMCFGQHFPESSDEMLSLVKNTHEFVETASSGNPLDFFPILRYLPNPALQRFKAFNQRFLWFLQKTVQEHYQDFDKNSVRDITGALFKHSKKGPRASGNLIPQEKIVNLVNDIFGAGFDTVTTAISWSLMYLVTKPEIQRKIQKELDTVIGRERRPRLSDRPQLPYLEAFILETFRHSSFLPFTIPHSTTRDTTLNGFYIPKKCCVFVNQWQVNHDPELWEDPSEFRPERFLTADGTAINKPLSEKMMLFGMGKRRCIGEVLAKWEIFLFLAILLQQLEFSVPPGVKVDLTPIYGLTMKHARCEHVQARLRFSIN

Cytochrome P450 2C19 = Cytochrome P450 2C19 (Homo sapiens, UniProt P33261); test: Inhibition of CYP2C19 in human liver microsomes in presence of NADPH by LC-MS/MS analysis; type: ADME, Microsome
Chain of Cytochrome P450 2C19 (P33261 whole entry): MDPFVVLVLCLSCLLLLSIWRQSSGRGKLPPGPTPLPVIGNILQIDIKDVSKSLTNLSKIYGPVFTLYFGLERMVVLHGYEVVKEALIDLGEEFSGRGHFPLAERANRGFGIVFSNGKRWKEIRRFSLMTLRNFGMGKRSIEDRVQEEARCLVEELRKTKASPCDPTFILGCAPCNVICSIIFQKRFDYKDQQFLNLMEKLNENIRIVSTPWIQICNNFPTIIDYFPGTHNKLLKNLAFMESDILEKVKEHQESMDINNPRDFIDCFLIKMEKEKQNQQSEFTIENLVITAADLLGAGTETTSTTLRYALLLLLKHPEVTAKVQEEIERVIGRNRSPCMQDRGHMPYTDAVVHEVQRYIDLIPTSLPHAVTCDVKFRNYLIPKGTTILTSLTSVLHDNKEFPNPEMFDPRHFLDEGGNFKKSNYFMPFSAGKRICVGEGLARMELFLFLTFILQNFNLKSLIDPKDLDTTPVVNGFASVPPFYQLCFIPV

in vitro = conditions: human, liver microsomes
Description: Metabolic stability in human liver microsomes assessed as intrinsic clearance preincubated for 5 mins followed by NADPH addition and measured after 60 mins by LC-MS/MS analysis

Focal adhesion kinase 1 = Focal adhesion kinase 1 (Homo sapiens, UniProt Q05397); test: Inhibition of FAK (unknown origin) by HTRF assay
Chain of Focal adhesion kinase 1 (Q05397 whole entry): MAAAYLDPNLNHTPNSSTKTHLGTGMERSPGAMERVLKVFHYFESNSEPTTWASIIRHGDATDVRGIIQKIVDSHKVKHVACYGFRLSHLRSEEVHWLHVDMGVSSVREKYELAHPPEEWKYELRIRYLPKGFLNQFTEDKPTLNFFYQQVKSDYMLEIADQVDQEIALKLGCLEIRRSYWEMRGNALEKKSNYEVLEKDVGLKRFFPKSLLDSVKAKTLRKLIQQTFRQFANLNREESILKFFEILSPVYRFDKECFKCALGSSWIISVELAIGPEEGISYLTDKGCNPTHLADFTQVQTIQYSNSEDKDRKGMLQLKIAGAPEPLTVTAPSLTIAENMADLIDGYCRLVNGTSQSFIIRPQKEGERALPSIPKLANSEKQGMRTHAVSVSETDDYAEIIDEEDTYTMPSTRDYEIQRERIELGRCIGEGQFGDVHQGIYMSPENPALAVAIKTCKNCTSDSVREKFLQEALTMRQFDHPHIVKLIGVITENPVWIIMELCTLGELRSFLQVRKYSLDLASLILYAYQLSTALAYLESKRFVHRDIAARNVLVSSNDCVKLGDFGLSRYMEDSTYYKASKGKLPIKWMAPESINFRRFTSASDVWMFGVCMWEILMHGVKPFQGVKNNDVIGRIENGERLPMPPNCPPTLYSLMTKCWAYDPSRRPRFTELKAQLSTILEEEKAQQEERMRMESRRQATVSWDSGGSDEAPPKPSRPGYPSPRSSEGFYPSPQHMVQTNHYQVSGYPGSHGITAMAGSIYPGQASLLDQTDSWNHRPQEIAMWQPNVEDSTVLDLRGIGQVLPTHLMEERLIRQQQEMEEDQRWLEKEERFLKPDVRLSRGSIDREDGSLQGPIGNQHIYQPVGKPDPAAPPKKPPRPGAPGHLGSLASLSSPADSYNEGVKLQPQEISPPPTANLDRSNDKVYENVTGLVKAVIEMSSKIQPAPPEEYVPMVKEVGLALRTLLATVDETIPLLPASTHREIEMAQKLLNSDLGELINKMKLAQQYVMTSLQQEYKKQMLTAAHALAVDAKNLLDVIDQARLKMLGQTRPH

SMILES: CNC(=O)c1ccc(Nc2ncc(C(F)(F)F)c(NCc3nccnc3N(C)S(C)(=O)=O)n2)cc1 [DEFACTINIB]
inhibition in vivo at 25 mg/kg (SK-OV-3 [1]): 53.9%
inhibition in vivo at 50 mg/kg (A549): 40.7%
inhibition in vivo at 25 mg/kg (SK-OV-3 [2]): 74.7%

SMILES: CC(=O)O[C@H]1C(=O)[C@@]2(C)[C@H]([C@H](OC(=O)c3ccccc3)[C@]3(O)C[C@H](OC(=O)[C@H](O)[C@@H](NC(=O)c4ccccc4)c4ccccc4)C(C)=C1C3(C)C)[C@]1(OC(C)=O)CO[C@@H]1C[C@@H]2O [PACLITAXEL]
inhibition in vivo at 4 mg/kg (SK-OV-3 [3]): 55.3%

SMILES: C#Cc1cccc(Nc2ncnc3cc(OCCOC)c(OCCOC)cc23)c1 [ERLOTINIB]
inhibition in vivo at 50 mg/kg (A549): 47.4%

IC50 (Cytochrome P450 3A4): > 50 µM
IC50 (Cytochrome P450 2D6): > 50 µM
IC50 (Cytochrome P450 2C9): 22.5 µM
IC50 (Cytochrome P450 1A2): 26.6 µM
IC50 (Cytochrome P450 2C19): 36.2 µM
SMILES: CNC(=O)c1ccccc1Nc1nc(Nc2ccc(OCCF)cc2)ncc1Br

microsomal CLint at 1 h (in vitro): 232 µL/min/mg
SMILES: O=C(O)Cc1ccccc1Nc1c(Cl)cccc1Cl [DICLOFENAC]

IC50 (Focal adhesion kinase 1): 0.0113 µM
SMILES: CC(=O)Nc1ccc(Nc2nc(Nc3ccc(NC(=O)CCNC(=O)c4ccc(F)nc4)cc3)ncc2Br)c(NC(C)=O)c1
